Measurements published in the supplement of paper PMC10307832.

Key:
Assay in all cases: relative viability (nuclei count vs DMSO), 5 days (fraction); higher = more cells survive
VE-821 + Lapatinib = compound: CS(=O)(=O)c1ccc(-c2cnc(N)c(C(=O)Nc3ccccc3)n2)cc1 [VE-821] + CS(=O)(=O)CCNCc1ccc(-c2ccc3ncnc(Nc4ccc(OCc5cccc(F)c5)c(Cl)c4)c3c2)o1 [Lapatinib] (partner 2 µM)
Procedure, shortened: (§1)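 Relative viability was taken as the ratio of nuclei in treated wells to nuclei in vehicle wells. Lung cancer cell lines in 1536-well plates received compounds by pin tool one day after seeding, either one drug alone or a fixed anchor-drug dose plus five library-drug doses (not always all listed) in √10 steps. Nuclei were counted on 4× images after 5 days of treatment, and values are medians of duplicate plates.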

VE-821 + Pictilisib = compound: CS(=O)(=O)c1ccc(-c2cnc(N)c(C(=O)Nc3ccccc3)n2)cc1 [VE-821] + CS(=O)(=O)N1CCN(Cc2cc3nc(-c4cccc5[nH]ncc45)nc(N4CCOCC4)c3s2)CC1 [Pictilisib] (partner 1 µM)
Procedure, shortened: as §1

Ruxolitinib + Pictilisib = compound: N#CC[C@H](C1CCCC1)n1cc(-c2ncnc3[nH]ccc23)cn1 [Ruxolitinib] + CS(=O)(=O)N1CCN(Cc2cc3nc(-c4cccc5[nH]ncc45)nc(N4CCOCC4)c3s2)CC1 [Pictilisib] (partner 1 µM)
Procedure, shortened: as §1

Ruxolitinib + Decitabine = compound: N#CC[C@H](C1CCCC1)n1cc(-c2ncnc3[nH]ccc23)cn1 [Ruxolitinib] + Nc1ncn([C@H]2C[C@H](O)[C@@H](CO)O2)c(=O)n1 [Decitabine] (partner 2 µM)
Procedure, shortened: as §1

Row | Cell Line | relative viability (VE-821 + Lapatinib; first compound 0.08 µM) | relative viability (VE-821 + Lapatinib; first compound 0.253 µM) | relative viability (VE-821 + Lapatinib; first compound 0.8 µM) | relative viability (VE-821 + Lapatinib; first compound 2.53 µM) | relative viability (VE-821 + Lapatinib; first compound 8 µM) | relative viability (VE-821 + Pictilisib; first compound 0.08 µM) | relative viability (VE-821 + Pictilisib; first compound 0.253 µM) | relative viability (VE-821 + Pictilisib; first compound 0.8 µM) | relative viability (VE-821 + Pictilisib; first compound 2.53 µM) | relative viability (VE-821 + Pictilisib; first compound 8 µM) | relative viability (Ruxolitinib + Pictilisib; first compound 0.08 µM) | relative viability (Ruxolitinib + Pictilisib; first compound 0.253 µM) | relative viability (Ruxolitinib + Pictilisib; first compound 0.8 µM) | relative viability (Ruxolitinib + Pictilisib; first compound 2.53 µM) | relative viability (Ruxolitinib + Pictilisib; first compound 8 µM) | relative viability (Ruxolitinib + Decitabine; first compound 0.08 µM) | relative viability (Ruxolitinib + Decitabine; first compound 0.253 µM) | relative viability (Ruxolitinib + Decitabine; first compound 0.8 µM) | relative viability (Ruxolitinib + Decitabine; first compound 2.53 µM) | relative viability (Ruxolitinib + Decitabine; first compound 8 µM)
1 | NCI-H1993 | 0.947 | 0.837 | 0.75 | 0.784 | 0.826 | 0.861 | 0.821 | 0.822 | 0.874 | 0.862 | 0.809 | 0.754 | 0.855 | 0.781 | 0.846 | 0.582 | 0.53 | 0.595 | 0.534 | 0.59
2 | NCI-H2009 | 0.89 | 0.959 | 0.893 | 0.997 | 0.977 | 0.873 | 0.754 | 0.881 | 0.894 | 0.664 | 0.913 | 0.901 | 0.987 | 0.508 | 0.658 | 0.361 | 0.375 | 0.364 | 0.369 | 0.317
3 | NCI-H2023 | 0.918 | 0.878 | 0.713 | 0.477 | 0.202 | 0.278 | 0.223 | 0.191 | 0.194 | 0.135 | 0.251 | 0.188 | 0.247 | 0.215 | 0.228 | 0.214 | 0.264 | 0.267 | 0.218 | 0.271
4 | NCI-H2085 | 0.8 | 0.758 | 0.507 | 0.815 | 0.563 | 0.461 | 0.446 | 0.485 | 0.483 | 0.409 | 0.564 | 0.469 | 0.419 | 0.463 | 0.611 | 0.598 | 0.531 | 0.624 | 0.515 | 0.496
5 | NCI-H2087 | 0.987 | 1.12 | 1.13 | 1.26 | 1.02 | 1.23 | 0.721 | 0.971 | 1.14 | 0.888 | 0.798 | 0.937 | 0.645 | 0.335 | 0.842 | 0.316 |  | 0.35 | 0.189 | 0.286
6 | NCI-H2126 | 0.741 | 0.713 | 0.747 | 0.677 | 0.6 | 0.483 | 0.436 | 0.487 | 0.507 | 0.439 | 0.493 | 0.472 | 0.531 | 0.55 | 0.582 | 0.559 | 0.594 | 0.584 | 0.631 | 0.635
7 | NCI-H2170 | 0.289 | 0.278 | 0.256 | 0.272 | 0.272 | 0.319 | 0.289 | 0.332 | 0.4 | 0.293 | 0.36 | 0.28 | 0.418 | 0.303 | 0.253 | 0.499 | 0.436 | 0.496 | 0.425 | 0.427
8 | NCI-H2347 | 1.02 | 1.05 | 0.664 | 1.03 | 1.14 | 0.565 | 0.583 | 0.563 | 0.525 | 0.485 | 0.437 | 0.637 | 0.554 | 0.485 | 0.674 | 0.614 | 0.602 | 0.65 | 0.563 | 0.62
